# Source: patent US10004786B2 (Zealand Pharma A/S, priority 2009, dated 2018)
# Experiments:
# Assay type in all cases: in vivo
# [1] = Total cholesterol and HDL/LDL ratio in Diet Induced Obese (DIO) mice; conditions: 4 weeks, 12.7 nmol/kg, plasma, P<0.0001
# Method: The assay is an enzymatic colorimetric method. In the presence of magnesium ions, dextran sulfate selectively forms water-soluble complexes with LDL, VLDLA and chylomicrons, which are resistant to PEG-modified enzymes. The HDL cholesterol is determined enzymatically by cholesterol esterase and cholesterol oxidase coupled with PEG to the amino groups. Cholesterol esters are broken down quantitatively to free cholesterol and fatty acids. HDL cholesterol is enzymatically oxidized to choles-4-en-3-one and H2O2, and the formed H2O2 is measured colorimetrically (Cobas®; Application note HDLC3).
# The direct determination of LDL takes advantage of the selective micellary solubilization of LDL by a nonionic detergent and the interaction of a sugar compound and lipoproteins (VLDL and chylomicrons). The combination of a sugar compound with detergent enables the selective determination of LDL in plasma. […] Free cholesterol is then oxidized and the formed H2O2 is measured colorimetrically (Application note LDL_C, Cobas®).
# Diet Induced Obese (DIO) mice were treated with vehicle or compound 7 for 4 weeks and plasma prepared from the collected blood samples. The total cholesterol, LDL and HDL were determined in each plasma sample (Cobas® application notes: CHOL2, HDLC3 and LDL_C) and results are shown in FIGS. 5 and 6.
# [2] = HbA1c in db/db mice after 28 days; conditions: 4 weeks, 12.7 nmol/kg, P=0.03 Students t-test
# Method: Male mice (Long term high fat fed C57Bl/6J, short term high fat fed C57Bl/6J and db/db) were acclimatized with free access to food and water. They were housed in groups of 5-6 in a light-, temperature-, and humidity-controlled room (12-hour light:12-hour dark cycle, lights On/Off at 2000/0800 hour; 24° C.; 50% relative humidity).
# The animals were injected s.c. with 100 μl vehicle (once a day) for a period of three days to acclimatize the animals to handling and injections. Blood samples were taken from the eye or from the tip of the tail. The animals were randomized before treatment.
# Mice were treated twice daily s.c. with GluGLP-1 agonist or vehicle (injection volume=2.5 ml/kg). Throughout the study, body weights were recorded daily and used to administer the body weight-corrected doses of peptide. Peptide solutions were prepared fresh immediately before dosing. […]
# The HbA1c determination is based on Turbidimetric INhibition ImmunoAssay (TINIA) in which HbA1c in the sample reacts with anti-HbA1c to form soluble antigen-antibody complexes. Additions of polyhaptens react with excess anti-HbA1c antibodies to form an insoluble antibody-polyhapten complex, which can be measured turbidimetrically. Liberated hemoglobin in the hemolyzed sample is converted to a derivative having a characteristic absorption spectrum, which is measured bichromatically during the preincubation phases. […]
# [3] = Oral glucose tolerance 2, 4, 6, 8, 10 and 12 h after dosing in high fat fed mice; conditions: 10 nmol/kg s.c. single dose, high fat fed C57BL/6J mice
# Method: C57Bl/6J male mice, 6 weeks old, were acclimatized to their new environment with free access to a high fat diet (D12492, Research Diet Inc., New Brunswick, USA) and water. The animals were injected s.c. with vehicle for a period of three days to acclimatize the animals to handling and injections. Blood samples were taken from the tip of the tail and blood glucose measured. The blood glucose (mM) concentration was analyzed by the immobilized glucose oxidase method using a drop of blood (<5 μl; Contour Autoanalyser, Bayer, Denmark) following the manufacturer's manual. After 4 weeks on the high fat diet the animals were weighed and the body weight was used to administer a body weight-corrected dose of peptide. An oral glucose tolerance test (OGTT) was performed after subjecting the animals to 4 hours of fasting. At 2, 4, 6, 8, 10 and 12 hours after single peptide or vehicle dosing an initial blood sample were taken (t=−0 min). Immediately thereafter, an oral dose of glucose (1 g/kg) was given and the animals were returned to their home cages (t=0). BG levels were measured at t=15 min, t=30 min, t=60 min and t=90 min. […]
# An oral glucose tolerance test (OGTT) was performed after subjecting the animals to 4 hours of fasting. […] BG levels were measured at t=15 min, t=30 min, t=60 min and t=90 min. […]
# [4] = Pharmacokinetic screening in mouse plasma after subcutaneous administration; conditions: sc, mice, 100 nmol/kg s.c., * = only two time points used for calculation
# Method: Mice were dosed 100 nmol/kg subcutaneously (s.c.). The mice were sacrificed and the blood collected at the following time points; 0.5, 2, 4, 6, 16 and 24 h. Plasma samples were analyzed using protein precipitation, followed by solid phase extraction (SPE) and liquid chromatography mass spectrometry (LC-MS).
# Pharmacokinetic profiles were determined for various acylated compounds.
# [5] = Body weight gain in high fat fed C57BL/6J mice (10 days); conditions: 5 nmol/kg b.i.d. s.c., short term high fat-fed C57BL/6J mice
# Outline: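 Male C57Bl/6J mice fed high fat diet for 4 weeks from 6 weeks of age, vehicle-acclimatized 3 days, then dosed b.i.d. s.c. with peptide at 0.5 and 5 nmol/kg or vehicle. Doses corrected to daily body weights, which were recorded throughout.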
# [6] = Food intake in young lean and old obese C57BL/6J mice; conditions: s.c. at t=0 h and t=12 h, p<0.05 versus vehicle
# Method: C57BL/6J mice were on a high fat diet for 11 days and C57BL/6J mice were on a high fat diet for 52 weeks.
# 3 days before study, the mice were transferred to individual cages and weighed. 4 days before study, they were acclimatized to handling and treatment by daily s.c. injections. On the day before the experiment food was removed at 20:00. […] Immediately after treatment (t=0), pre-weighed food were introduced to the mice and the cumulative food intake was measured by weighing the remaining food after t=1, 2, 4, 8, 12 and 24 hours. After weighing the food and the animals at t=24 h, the mice were sacrificed by cervical dislocation.
# Immediately after treatment (t=0), pre-weighed food were introduced to the mice and the cumulative food intake was measured by weighing the remaining food after t=1, 2, 4, 8, 12 and 24 hours.
smiles,measurement,setting,value
CCCCCCCCCCCCCCCC(=O)N[C@@H](CCC(=O)NCCCC[C@H](NC(=O)[C@H](CO)NC(=O)[C@H](CC(=O)O)NC(=O)[C@H](CC(C)C)NC(=O)[C@H](Cc1ccc(O)cc1)NC(=O)[C@H](CCCCN)NC(=O)[C@H](CO)NC(=O)[C@H](Cc1ccc(O)cc1)NC(=O)[C@H](CC(=O)O)NC(=O)[C@H](CO)NC(=O)[C@@H](NC(=O)[C@H](Cc1ccccc1)NC(=O)[C@@H](NC(=O)CNC(=O)[C@H](CCC(N)=O)NC(=O)C(C)(C)NC(=O)[C@@H](N)Cc1c[nH]cn1)[C@@H](C)O)[C@@H](C)O)C(=O)N[C@@H](C)C(=O)N[C@@H](C)C(=O)N[C@@H](Cc1c[nH]cn1)C(=O)N[C@@H](CC(=O)O)C(=O)N[C@@H](Cc1ccccc1)C(=O)N[C@H](C(=O)N[C@@H](CCC(=O)O)C(=O)N[C@@H](Cc1c[nH]c2ccccc12)C(=O)N[C@@H](CC(C)C)C(=O)N[C@@H](CC(C)C)C(=O)N[C@@H](CO)C(=O)N[C@@H](C)C(N)=O)C(C)C)C(=O)O [Compound 7],HDL/LDL-ratio,[1],increased the HDL/LDL-ratio
same,total cholesterol concentrations,[1],decreased total cholesterol concentrations
same,ΔHbA1c (%) compared to vehicle,[2],decreased ΔHbA1c (%) significantly
same,glucose tolerance (AUC during oral glucose tolerance test),[3],significantly improves glucose tolerance
same,half-life,[4],3.4 h
same,"body weight gain, high dose",[5],significantly decreased body weight gain at the high dose
same,"food intake, old obese mice",[6]; high fat diet for 52 weeks,"reduced food intake during the 0-2, 0-4, 0-8, 0-12 and 0-24 time periods"
same,"food intake, young lean mice",[6]; high fat diet for 11 days,"reduced food intake during the 0-4, 0-8, 0-12 and 0-24 time periods"
